Assays:
[1] = target: Prostaglandin E2 receptor EP2 subtype (Homo sapiens, UniProt P43116); assay: Agonist activity at human EP2 receptor
[2] = target: T1, Prostaglandin E2 receptor EP3 subtype (Homo sapiens, UniProt P43115); assay: Agonist activity at human EP3 receptor
T1 sequence (P43115 whole entry): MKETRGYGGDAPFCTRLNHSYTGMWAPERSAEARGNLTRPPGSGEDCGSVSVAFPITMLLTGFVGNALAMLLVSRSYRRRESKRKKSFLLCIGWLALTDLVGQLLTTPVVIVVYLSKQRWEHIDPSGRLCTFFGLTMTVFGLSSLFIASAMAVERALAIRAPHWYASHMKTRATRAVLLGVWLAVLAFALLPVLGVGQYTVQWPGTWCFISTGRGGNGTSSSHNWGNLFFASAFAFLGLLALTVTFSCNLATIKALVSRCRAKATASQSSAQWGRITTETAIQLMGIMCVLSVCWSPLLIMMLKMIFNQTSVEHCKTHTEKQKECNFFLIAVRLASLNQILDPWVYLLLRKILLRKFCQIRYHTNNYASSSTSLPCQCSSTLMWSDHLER

[3] = target: Prostaglandin E2 receptor EP4 subtype (Homo sapiens, UniProt P35408); assay: Agonist activity at human EP4 receptor
[4] = Oral bioavailability in rat at 1 mg/kg; assay type: ADME, organism-based; conditions: in vivo
[5] = Half life in rat at 0.01 mg/kg, iv; assay type: ADME, organism-based; conditions: in vivo
[6] = target: T2, Prostaglandin E2 receptor EP1 subtype (Homo sapiens, UniProt P34995); assay: Binding affinity to human EP1 receptor
T2 sequence (P34995 whole entry): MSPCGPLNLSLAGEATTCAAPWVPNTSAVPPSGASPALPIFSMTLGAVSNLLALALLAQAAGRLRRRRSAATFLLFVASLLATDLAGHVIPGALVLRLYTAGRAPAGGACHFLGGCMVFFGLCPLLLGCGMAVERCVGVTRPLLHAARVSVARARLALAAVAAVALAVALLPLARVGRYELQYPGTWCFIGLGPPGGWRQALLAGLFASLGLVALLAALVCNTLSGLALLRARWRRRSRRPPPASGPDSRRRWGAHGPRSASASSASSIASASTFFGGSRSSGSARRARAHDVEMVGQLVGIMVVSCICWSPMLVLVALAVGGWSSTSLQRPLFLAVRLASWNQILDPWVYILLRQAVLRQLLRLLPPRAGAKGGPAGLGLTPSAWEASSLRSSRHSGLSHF

[7] = AUC in rat at 1 mg/kg, po; assay type: ADME, organism-based; conditions: in vivo
[8] = Clearance in rat at 0.01 mg/kg, iv; assay type: ADME, organism-based; conditions: in vivo

Prostaglandin E2 receptor EP2 subtype, sequence (P43116 whole entry): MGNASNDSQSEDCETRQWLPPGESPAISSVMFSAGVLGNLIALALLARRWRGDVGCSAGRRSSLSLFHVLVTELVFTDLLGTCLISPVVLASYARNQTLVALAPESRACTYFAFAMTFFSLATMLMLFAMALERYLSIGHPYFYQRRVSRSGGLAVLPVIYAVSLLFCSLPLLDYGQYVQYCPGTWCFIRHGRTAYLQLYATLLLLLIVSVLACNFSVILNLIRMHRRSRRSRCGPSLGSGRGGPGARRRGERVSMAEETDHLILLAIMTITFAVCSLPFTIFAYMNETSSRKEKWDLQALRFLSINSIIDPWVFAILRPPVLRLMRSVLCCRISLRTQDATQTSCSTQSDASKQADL
Prostaglandin E2 receptor EP4 subtype, sequence (P35408 whole entry): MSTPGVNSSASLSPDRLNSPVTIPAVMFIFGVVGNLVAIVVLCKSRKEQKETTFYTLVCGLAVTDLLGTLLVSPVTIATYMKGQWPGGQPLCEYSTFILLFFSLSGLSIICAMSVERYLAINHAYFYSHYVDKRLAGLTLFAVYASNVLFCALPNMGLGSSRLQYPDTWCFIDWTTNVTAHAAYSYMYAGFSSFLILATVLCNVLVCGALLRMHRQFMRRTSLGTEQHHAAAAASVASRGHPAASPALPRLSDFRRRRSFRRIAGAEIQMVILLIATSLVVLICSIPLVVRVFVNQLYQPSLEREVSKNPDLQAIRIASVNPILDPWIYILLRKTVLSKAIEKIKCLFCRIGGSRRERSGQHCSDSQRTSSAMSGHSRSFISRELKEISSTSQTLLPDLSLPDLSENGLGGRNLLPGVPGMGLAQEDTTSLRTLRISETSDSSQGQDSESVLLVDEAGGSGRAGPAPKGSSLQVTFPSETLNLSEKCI

| EC50 [1] | EC50 [2] | EC50 [3] | bioavailability [4] | half-life [5] | Ki [6] | AUC [7] | clearance [8] | SMILES |
| --- | --- | --- | --- | --- | --- | --- | --- | --- |
| 2.9 nM | 10 nM | 195 nM | 2.5% | 4.4 h | 1080 nM | 41 ng·h/mL | 9.5 mL/min/kg | O=C(O)c1csc(SCCN2C(=O)OC[C@@H]2/C=C/[C@@H](O)C2(CCCCF)CCC2)n1 |
| 2.9 nM | 3.9 nM | 73 nM |  |  | 220 nM |  |  | CCCCC1([C@H](O)/C=C/[C@H]2COC(=O)N2CCSc2nc(C(=O)O)cs2)CCC1 |
| 7.4 nM | 50 nM | 320 nM |  |  | 120 nM |  |  | CCCCC(C)(C)[C@H](O)/C=C/[C@H]1COC(=O)N1CCSc1nc(C(=O)O)cs1 |
| 0.91 nM | 8.4 nM | 4.2 nM |  |  |  |  |  | CCCCC(C)(C)[C@H](O)/C=C/[C@H]1CCC(=O)N1CCSc1nc(C(=O)O)cs1 |
| 18 nM | 25 nM | 705 nM |  |  | > 10000 nM |  |  | COCCCC1([C@H](O)/C=C/[C@H]2COC(=O)N2CCSc2nc(C(=O)O)cs2)CCC1 |
| 5.7 nM | 4.7 nM | 1220 nM |  |  | 431 nM |  |  | CC(C)(CCCCF)[C@H](O)/C=C/[C@H]1COC(=O)N1CCSc1nc(C(=O)O)cs1 |
| 60 nM | 7.4 nM | 8390 nM |  |  | 1330 nM |  |  | O=C(O)c1csc(SCCN2C(=O)OC[C@@H]2/C=C/[C@@H](O)C2(CCC3CCCCC3)CCC2)n1 |
| 3700 nM | 6.7 nM | 4710 nM |  |  | 149 nM |  |  | CC(C)(C)CCC1([C@H](O)/C=C/[C@H]2COC(=O)N2CCSc2nc(C(=O)O)cs2)CCC1 |
| 160 nM | 27 nM | 465 nM |  |  | 802 nM |  |  | O=C(O)c1csc(SCCN2C(=O)OC[C@@H]2/C=C/[C@@H](O)C2(CCc3ccccc3)CCC2)n1 |
| 0.39 nM | 310 nM | 3 nM |  |  |  |  |  | CCCC[C@H](C)C[C@H](O)/C=C/[C@H]1CCC(=O)N1CCSc1nc(C(=O)O)cs1 |
| 21 nM | 18 nM | 240 nM |  |  | 89 nM |  |  | CC#CCC1([C@H](O)/C=C/[C@H]2COC(=O)N2CCSc2nc(C(=O)O)cs2)CCC1 |
| 29 nM | 2610 nM | 745 nM |  |  | 8420 nM |  |  | CCOCCC1([C@H](O)/C=C/[C@H]2COC(=O)N2CCSc2nc(C(=O)O)cs2)CCC1 |
